# Literature values in patent US6399099B1, “Effervescent composition with dry extract of ginkgo biloba” (Dr. Willmar Schwabe GmbH & Co., priority 1995, dated 2002).
# Conditions: neutral or slightly basic aqueous medium
compound,measurement,value
CC(C)(C)[C@]1(O)CC2OC(=O)CC23C(=O)OC2OC(=O)[C@H](O)C231 (stereo partly shown) [bilobalide],stability in aqueous medium,not stable
